≈ marks a conversion by molar mass, not a printed value. Calls of active or inactive are those of the source. The rule behind the calls is not given here.

Experimental findings from ChEMBL document CHEMBL6114969, “Ultra-short lipopeptides containing d-amino acid exhibiting excellent stability and antibacterial activity against gram-positive bacteria” (Eur J Med Chem, 2025) are described below.

Data set [1] can be described thus: Toxicity in Balb/c mouse assessed as change in heart co-efficient at 20 to 80 mg/kg, ip measured after 7 days. In kind it is organism-based. The conditions noted are these: in vivo, 168 h, dose 20-80 mg/kg, time 7 day.
Data set [2] in a line: Toxicity in Balb/c mouse assessed as cell swelling in lung at 80 mg/kg, ip measured after 7 days by H and E staining based analysis. In kind it is organism-based. The conditions noted are these: in vivo, 168 h, time 7 day.
Data set [3] concerns Staphylococcus aureus. The data set can be described thus: Antibacterial activity against methicillin-resistant Staphylococcus aureus ATCC 33591 infected in Balb/c mouse model of skin wound infection assessed as reduction in inflammatory cell infiltration in skin at 10 mg/kg, ip administered thrice at 1, 24 and 48 hrs post-infection measured after 14 days by H and E staining based analysis. The format is functional, organism-based. The conditions noted are these: time 14.0 day.

The test system of data set [4] is Staphylococcus aureus. Description: Antibacterial activity against Staphylococcus aureus ATCC 25923 incubated for 18 to 24 hrs by broth microdilution method. In kind it is functional. The conditions noted are these: time 18-24 hrs. (Dilution methods test growth across graded concentrations, often in twofold steps.)
For data set [5], the system named is Staphylococcus aureus. Description: Antibacterial activity against methicillin-resistant Staphylococcus aureus ATCC 33591 infected in Balb/c mouse model of acute systemic infection assessed as reduction in inflammatory cell infiltration in kidney at 10 mg/kg, ip measured after 5 days by H and E staining based analysis. The conditions noted are these: time 5.0 day. In kind it is functional, organism-based.

In the case of `CCCCCCCCCCCC(=O)N[C@H](CCCNC(=N)N)C(=O)N[C@H](CCCNC(=N)N)C(=O)N[C@H](Cc1c[nH]c2ccccc12)C(=O)O`, the Activity result in data set [1] is on record as “Non-toxic”; in data set [2], “Toxic”. Further, the outcome in the data set with Staphylococcus aureus [3] and in the data set with Staphylococcus aureus [5] was Active. Besides, in the data set on Staphylococcus aureus [4], the MIC turned out to be 4 µM (≈ 2.8 µg/mL).

Usually MIC stands for the lowest concentration found to suppress growth.
